Source: patent US7960377B2 (priority 2008, dated 2011)

Assays:
[1] = target: T1, rat CB2 receptor (Rattus norvegicus, UniProt Q9QZN9); assay: cell-based; format: cell-based
T1 sequence (Q9QZN9 1-360): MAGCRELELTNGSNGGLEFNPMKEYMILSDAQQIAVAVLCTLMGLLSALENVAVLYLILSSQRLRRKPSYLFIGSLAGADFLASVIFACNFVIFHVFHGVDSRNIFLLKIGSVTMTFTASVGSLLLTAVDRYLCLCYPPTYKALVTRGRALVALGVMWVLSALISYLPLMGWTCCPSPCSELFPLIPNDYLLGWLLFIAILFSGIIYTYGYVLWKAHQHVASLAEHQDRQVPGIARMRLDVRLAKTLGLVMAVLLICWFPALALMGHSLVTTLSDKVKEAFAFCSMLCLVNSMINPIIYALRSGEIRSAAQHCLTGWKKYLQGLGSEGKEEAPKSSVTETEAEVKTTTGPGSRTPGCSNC

[2] = target: human CB1 receptor (Homo sapiens, UniProt P21554); assay: cell-based
Sequence of human CB1 receptor (P21554 whole entry): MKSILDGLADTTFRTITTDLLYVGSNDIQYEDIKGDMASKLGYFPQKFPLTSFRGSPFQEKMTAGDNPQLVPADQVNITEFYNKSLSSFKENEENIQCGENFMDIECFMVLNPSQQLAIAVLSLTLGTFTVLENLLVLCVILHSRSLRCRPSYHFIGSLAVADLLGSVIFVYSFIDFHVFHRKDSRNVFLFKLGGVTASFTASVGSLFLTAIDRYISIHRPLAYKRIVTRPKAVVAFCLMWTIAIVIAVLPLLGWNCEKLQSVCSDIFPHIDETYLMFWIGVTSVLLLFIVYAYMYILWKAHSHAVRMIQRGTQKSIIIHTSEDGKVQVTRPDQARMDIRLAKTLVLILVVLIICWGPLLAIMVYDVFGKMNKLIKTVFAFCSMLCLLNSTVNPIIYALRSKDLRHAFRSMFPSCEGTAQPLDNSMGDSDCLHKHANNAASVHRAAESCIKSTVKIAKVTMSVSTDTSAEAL

| SMILES | EC50 [1] [µM] | EC50 [2] [µM] | other results |
| --- | --- | --- | --- |
| CC(C)(C)NC(=O)c1cnc2c(c1)N(S(=O)(=O)N1CCCCC1)CCO2 [Example 2, N-tert-butyl-1-(piperidin-1-ylsulfonyl)-2,3-dihydro-1H-pyrido[2,3-b][1,4]oxazine-7-carboxamide] | ≤ 0.03 | – | – |
| CC(C)CNC(=O)c1cnc2c(c1)N(S(=O)(=O)c1ccc(F)cc1)CCO2 [Example 8, 1-(4-fluorophenyl-sulfonyl)-N-isobutyl-2,3-dihydro-1H-pyrido[2,3-b][1,4]oxazine-7-carboxamide] | ≤ 0.03 | – | – |
| O=C(NC1CCCC1)c1cnc2c(c1)N(S(=O)(=O)c1ccc(F)cc1)CCO2 [Example 10] | ≤ 0.03 | – | – |
| CC(C)(CO)NC(=O)c1cnc2c(c1)N(S(=O)(=O)c1ccc(C(F)(F)F)cc1)CCO2 [Example 39, N-(1-hydroxy-2-methyl-propan-2-yl)-1-(4-(trifluoromethyl)phenylsulf-onyl)-2,3-dihydro-1H-pyrido[2,3-b][1,4]oxazine-7-carboxamide] | ≤ 0.03 | – | – |
| CCN(C(=O)c1cnc2c(c1)N(S(=O)(=O)c1ccc(C(F)(F)F)cc1)CCO2)C(C)(C)C [Example 42, N-tert-butyl-N-ethyl-1-(4-(trifluoromethyl)phenylsulf-onyl)-2,3-dihydro-1H-pyrido[2,3-b][1,4]oxazine-7-carboxamide] | ≤ 0.03 | – | – |
| CNC(=O)[C@@H](N(C)C(=O)c1cnc2c(c1)N(S(=O)(=O)c1ccc(F)cc1)CCO2)C(C)(C)C [Example 58, (S)-N-(3,3-dimethyl-1-(methylamino)-1-oxobutan-2-yl)-1-(4-fluorophenylsulfonyl)-N-methyl-2,3-dihydro-1H-pyrido[2,3-b][1,4]oxazine-7-carboxamide] | ≤ 0.03 | – | – |
| O=C(NC1(CO)CCCC1)c1cnc2c(c1)N(S(=O)(=O)c1ccc(C(F)(F)F)cc1)CCO2 [Example 67, N-(1-(hydroxymethyl)-cyclopentyl)-1-(4-(trifluoromethyl)phenylsulf-onyl)-2,3-dihydro-1H-pyrido[2,3-b][1,4]oxazine-7-carboxamide] | ≤ 0.03 | – | – |
| C[C@H]1CCCCN1C(=O)c1cnc2c(c1)N(S(=O)(=O)c1ccc(C(F)(F)F)cc1)CCO2 [Example 69, (S)-(2-methylpiperidin-1-yl)(1-(4-(trifluoromethyl)-phenylsulfonyl)-2,3-dihydro-1H-pyrido[2,3-b][1,4]oxazin-7-yl)-methanone] | ≤ 0.03 | – | – |
| CC(C)(CO)NC(=O)c1cnc2c(c1)N(S(=O)(=O)c1ccc(F)cc1F)CCO2 [Example 102, 1-(2,4-difluorophenylsulfonyl)-N-(1-hydroxy-2-methylpropan-2-yl)-2,3-dihydro-1H-pyrido[2,3-b][1,4]oxazine-7-carboxamide] | ≤ 0.03 | – | – |
| CC(C)(O)CNC(=O)c1cnc2c(c1)N(S(=O)(=O)c1ccc(F)c(F)c1)CCO2 [Example 109, 1-(3,4-difluorophenylsulfonyl)-N-(2-hydroxy-2-methylpropyl)-2,3-dihydro-1H-pyrido[2,3-b][1,4]oxazine-7-carboxamide] | ≤ 0.03 | – | – |
| O=C(N[C@H]1CCC[C@@H]1O)c1cnc2c(c1)N(S(=O)(=O)c1ccc(Cl)cc1F)CCO2 [Example 111, 1-(4-chloro-2-fluorophenylsulfonyl)-N-((1S,2S)-2-hydroxycyclopentyl)-2,3-dihydro-1H-pyrido[2,3-b][1,4]oxazine-7-carboxamide] | ≤ 0.03 | – | – |
| CC(C)(CN1CCOCC1)NC(=O)c1cnc2c(c1)N(S(=O)(=O)c1ccc(Cl)c(Cl)c1)CCO2 [Example 112, 1-(3,4-dichlorophenylsulfonyl)-N-(2-methyl-1-morpholinopropan-2-yl)-2,3-dihydro-1H-pyrido[2,3-b][1,4]oxazine-7-carboxamide] | ≤ 0.03 | – | – |
| CN(CC(C)(C)CO)C(=O)c1cnc2c(c1)N(S(=O)(=O)c1ccc(Cl)c(Cl)c1)CCO2 [Example 121, 1-(3,4-dichlorophenylsulfonyl)-N-(3-hydroxy-2,2-dimethylpropyl)-N-methyl-2,3-dihydro-1H-pyrido[2,3-b][1,4]oxazine-7-carboxamide] | ≤ 0.03 | – | – |
| O=C(c1cnc2c(c1)N(S(=O)(=O)c1ccc(Cl)c(Cl)c1)CCO2)N1CCC1 [Example 130, azetidin-1-yl(1-(3,4-dichlorophenylsulfonyl)-2,3-dihydro-1H-pyrido[2,3-b][1,4]oxazin-7-yl)methanone] | – | – | inverse agonist mark, human CB1 receptor ([2]; asterisk at the compound number): 130*, 136, 141, 142, 149, 156, 157, 163, 164, 168, 173, 183, 195, |
| CCC(C)(C)NC(=O)c1cnc2c(c1)N(S(=O)(=O)N(C)C)CCO2 [Example 143, 1-(N,N-dimethyl-sulfamoyl)-N-tert-pentyl-2,3-dihydro-1H-pyrido[2,3-b][1,4]oxazine-7-carboxamide] | – | > 30 | – |
| CN(C)S(=O)(=O)N1CCOc2ncc(C(=O)NC(C)(C)CO)cc21 [Example 144, 1-(N,N-dimethyl-sulfamoyl)-N-(1-hydroxy-2-methylpropan-2-yl)-2,3-dihydro-1H-pyrido[2,3-b][1,4]oxazine-7-carboxamide] | – | > 30 | – |

| SMILES | EC50 [1] [µM] | EC50 [2] [µM] | other results |
| --- | --- | --- | --- |
| CN(C)S(=O)(=O)N1CCOc2ncc(C(=O)NC(C)(C)C)cc21 [Example 145, N-tert-butyl-1-(N,N-dimethylsulfamoyl)-2,3-dihydro-1H-pyrido[2,3-b][1,4]oxazine-7-carboxamide] | – | > 30 | – |
| CC(C)(CN1CCOCC1)NC(=O)c1cnc2c(c1)N(S(=O)(=O)N1CCCCC1)CCO2 [Example 147, N-(2-methyl-1-morpholinopropan-2-yl)-1-(piperidin-1-ylsulfonyl)-2,3-dihydro-1H-pyrido[2,3-b][1,4]oxazine-7-carboxamide] | – | > 30 | – |
| CCC(C)(C)NC(=O)c1cnc2c(c1)N(S(=O)(=O)N1CCN(C)CC1)CCO2 [Example 175, 1-(4-methylpiperazin-1-ylsulfonyl)-N-tert-pentyl-2,3-dihydro-1H-pyrido[2,3-b][1,4]oxazine-7-carboxamide] | – | > 30 | – |
| CC(C)(C)NC(=O)c1cnc2c(c1)N(S(=O)(=O)N1CCC(N3CCCC3)CC1)CCO2 [Example 176, N-tert-butyl-1-(4-(pyrrolidin-1-yl)piperidin-1-ylsulfonyl)-2,3-dihydro-1H-pyrido[2,3-b][1,4]oxazine-7-carboxamide] | – | > 30 | – |
| CC(C)(CO)NC(=O)c1cnc2c(c1)N(S(=O)(=O)NCc1ccccc1)CCO2 [Example 179, 1-(N-benzylsulfamoyl)-N-(1-hydroxy-2-methylpropan-2-yl)-2,3-dihydro-1H-pyrido[2,3-b][1,4]oxazine-7-carboxamide] | – | > 30 | – |
| CC(C)CNS(=O)(=O)N1CCOc2ncc(C(=O)NC(C)(C)CO)cc21 [Example 181, N-(1-hydroxy-2-methylpropan-2-yl)-1-(N-isobutylsulfamoyl)-2,3-dihydro-1H-pyrido[2,3-b][1,4]oxazine-7-carboxamide] | – | > 30 | – |
| CC1CN(C(=O)c2cnc3c(c2)N(S(=O)(=O)c2ccc(C(F)(F)F)cc2)CCO3)CC(C)O1 (centres unmarked) [Example 198, (2,6-dimethylmorpholino)(1-(4-(trifluoromethyl)phenylsulf-onyl)-2,3-dihydro-1H-pyrido[2,3-b][1,4]oxazin-7-yl)methanone] | – | > 30 | – |
| CC1CC(C)CN(C(=O)c2cnc3c(c2)N(S(=O)(=O)c2ccc(C(F)(F)F)cc2)CCO3)C1 (centres unmarked) [Example 200, (3,5-dimethylpiperidin-1-yl)(1-(4-(trifluoromethyl)phenylsulf-onyl)-2,3-dihydro-1H-pyrido[2,3-b][1,4]oxazin-7-yl)methanone] | – | > 30 | – |
| O=C(OCC1CCCCN1)c1cnc2c(c1)N(S(=O)(=O)c1ccc(C(F)(F)F)cc1)CCO2 (centres unmarked) [Example 202, piperidin-2-ylmethyl 1-(4-(trifluoromethyl)phenylsulfonyl)-2,3-dihydro-1H-pyrido[2,3-b][1,4]oxazine-7-carboxylate] | – | > 30 | – |
| CNCCOC(=O)c1cnc2c(c1)N(S(=O)(=O)c1ccc(Cl)c(Cl)c1)CCO2 [Example 203, 2-(methylamino)ethyl 1-(3,4-dichlorophenylsulfonyl)-2,3-dihydro-1H-pyrido[2,3-b][1,4]oxazine-7-carboxylate] | – | > 30 | – |
| CNCC(C)(C)COC(=O)c1cnc2c(c1)N(S(=O)(=O)c1ccc(Cl)c(Cl)c1)CCO2 [Example 204, 2,2-dimethyl-3-(methylamino)propyl 1-(3,4-dichlorophenylsulfonyl)-2,3-dihydro-1H-pyrido[2,3-b][1,4]oxazine-7-carboxylate] | – | > 30 | – |
| O=C(c1noc(-c2cnc3c(c2)N(S(=O)(=O)c2ccc(F)cc2)CCO3)n1)N1CCOCC1 [Example 215, (5-(1-(4-fluorophenyl-sulfonyl)-2,3-dihydro-1H-pyrido[2,3-b][1,4]oxazin-7-yl)-1,2,4-oxadiazol-3-yl)(morpholino)methanone] | – | > 30 | – |
| O=C(NC1CCCC1)c1cnc2c(c1)N(Cc1ccccc1)C(=O)CO2 [Example 219, 1-benzyl-N-cyclopentyl-2-oxo-2,3-dihydro-1H-pyrido[2,3-b] [1,4]oxazine-7-carboxamide] | – | > 30 | – |
| CC(C)(C)NC(=O)c1cnc2c(c1)N(Cc1ccccc1)C(=O)CO2 [Example 220, 1-benzyl-N-tert-butyl-2-oxo-2,3-dihydro-1H-pyrido[2,3-b] [1,4]oxazine-7-carboxamide] | – | > 30 | – |
| O=C(NC1CCCC1)c1cnc2c(c1)N(Cc1ccc(F)cc1)C(=O)CO2 [Example 221, N-cyclopentyl-1-(4-fluorobenzyl)-2-oxo-2,3-dihydro-1H-pyrido[2,3-b] [1,4]oxazine-7-carboxamide] | – | > 30 | – |
| O=C(NC1CCCC1)c1cnc2c(c1)N(Cc1ccc(Cl)cc1)C(=O)CO2 [Example 222, 1-(4-chlorobenzyl)-N-cyclopentyl-2-oxo-2,3-dihydro-1H-pyrido[2,3-b][1,4]oxazine-7-carboxamide] | – | > 30 | – |
